Target: Type-2 angiotensin II receptor (Sus scrofa)
Assay: Displacement of [125I]Ang2 from AT2 receptor in pig uterus membrane

Row | SMILES | Ki
1 | COCCOC(=O)NS(=O)(=O)c1sc(CC(C)C)cc1-c1ccc(Cn2ccnc2)cc1 [N-(methyloxy-ethyloxycarbonyl)-3-(4-imidazol-1-ylmethylphenyl)-5-iso-butylthiophene-2-sulfonamide] | 31 nM
2 | CCCCOC(=O)NS(=O)(=O)c1sc(CCCC)cc1-c1ccc(Cn2ccnc2)cc1 [N-butyloxycarbonyl-3-(4-imidazol-1-ylmethylphenyl)-5-butylthiophene-2-sulfonamide] | 5 nM
3 | CCCCOC(=O)NS(=O)(=O)c1ccc(CCCC)cc1-c1ccc(Cn2ccnc2)cc1 [N-butyloxycarbonyl-2-(4-imidazol-1-ylmethylphenyl)-4-butylbenzenesulfonamide] | 5 nM
4 | CCCCOC(=O)NS(=O)(=O)c1ccc(OC(C)C)cc1-c1ccc(Cn2ccnc2)cc1 [N-butyloxycarbonyl-2-(4-imidazol-1-ylmethylphenyl)-4-iso-propoxybenzenesulfonamide] | 15 nM
5 | CCCCN(C)C(=O)NS(=O)(=O)c1sc(CC(C)C)cc1-c1ccc(Cn2ccnc2)cc1 [N-(N-butyl-methylaminocarbonyl)-3-(4-imidazol-1-ylmethylphenyl)-5-isobutylthiophene-2-sulfonamide] | 4 nM

Other lines, results leading:

Row | Ki | SMILES
6 | 76 nM | CCCCS(=O)(=O)NS(=O)(=O)c1sc(CC(C)C)cc1-c1ccc(Cn2ccnc2)cc1 [N-butylsulfonyl-3-(4-imidazol-1-ylmethylphenyl)-5-iso-butylthiophene-2-sulfonamide]
7 | 2 nM | CCCCc1ccc(S(=O)(=O)NC(=O)OCC)c(-c2ccc(Cn3ccnc3)cc2)c1 [N-ethyloxycarbonyl-2-(4-imidazol-1-ylmethylphenyl)-4-butylbenzenesulfonamide]
8 | 63 nM | CC(C)Cc1cc(-c2ccc(Cn3ccnc3)cc2)c(S(=O)(=O)NC(=O)OC(C)(C)C)s1 [N-tert-butyloxycarbonyl-3-(4-imidazol-1-ylmethylphenyl)-5-iso-butylthiophene-2-sulfonamide]
9 | 75 nM | CC(C)Cc1cc(-c2ccc(Cn3ccnc3)cc2)c(S(=O)(=O)NC(=O)OC(C)C)s1 [N-iso-propyloxycarbonyl-3-(4-imidazol-1-ylmethylphenyl)-5-iso-butylthiophene-2-sulfonamide]
10 | 79 nM | CCCCS(=O)(=O)NC(=O)c1sc(CC(C)C)cc1-c1ccc(Cn2ccnc2)cc1 [N-butylsulfonyl-3-(4-imidazol-1-ylmethylphenyl)-5-iso-butylthiophene-2-carboxamide]
